Measured values published in US20110257168A1, “DERIVATIVES OF OXABISPIDINE AS NEURONAL NICOTINIC ACETYLCHOLINE RECEPTOR LIGANDS” (Targacept, Inc., priority 2008, published 2011).
Like-named read-outs stand apart in the source and are kept apart here.

Tests used:
human α4β2 = human α4β2 (Homo sapiens, UniProt P17787+P43681); experiment: Competition binding to human α4β2 receptors in membrane preparations
Method: (§1) SH-EP1/human α4β2 (Eaton et al., 2003), SH-EP1/human α4β4 (Gentry et al., 2003), SH-EP1/α6β3β4α5 (Grinevich et al., 2005), TE671/RD and SH-SY5Y cell lines (obtained from Dr. Ron Lukas, Barrow Neurological Institute) were maintained in proliferative growth phase in Dulbecco's modified Eagle's medium (Gibco/BRL) with 10% horse serum (Gibco BRL), 5% fetal bovine serum (HyClone, Logan Utah), 1 mM sodium pyruvate, 4 mM L-glutamine. For maintenance of stable transfectants, the α4β2 and α4β4 cell media was supplemented with 0.25 mg/mL zeocin and 0.13 mg/mL hygromycin B. Selection was maintained for the α6β3β4α5 cells with 0.25 mg/mL of zeocin, 0.13 mg/mL of hygromycin B, 0.4 mg/mL of geneticin, and 0.2 mg/mL of blasticidin. HEK/human α7/RIC3 cells (obtained from J. Lindstrom, U. Pennsylvania) were maintained in proliferative growth phase in Dulbecco's modified Eagle's medium (Gibco/BRL) with 10% fetal bovine serum (HyClone, Logan Utah), 1 mM sodium pyruvate, 4 mM L-glutamine, 0.4 mg/mL geneticin; 0.2 mg/ml hygromycin B.
(§2) Preparation of membranes from rat tissues. Rat cortices were obtained from Analytical Biological Services, Incorporated (ABS, Wilmington, Del.). Tissues were dissected from female Sprague-Dawley rats, frozen and shipped on dry ice. Tissues were stored at −20° C. until needed for membrane preparation. Cortices from 10 rats were pooled and homogenized by Polytron (Kinematica GmbH, Switzerland) in 10 volumes (weight:volume) of ice-cold preparative buffer (KCl, 11 mM; KH2PO4, 6 mM; NaCl 137 mM; Na2HPO4 8 mM; HEPES (free acid), 20 mM; iodoacetamide, 5 mM; EDTA, 1.5 mM; 0.1 mM PMSF pH 7.4). The resulting homogenate was centrifuged at 40,000 g for 20 minutes at 4° C. and the resulting pellet was resuspended in 20 volumes of ice-cold water. After 60-minute incubation at 4° C., a new pellet was collected by centrifugation at 40,000 g for 20 minutes at 4° C. The final pellet was resuspended in preparative buffer and stored at −20° C. On the day of the assay, tissue was thawed, centrifuged at 40,000 g for 20 minutes and then resuspended in PBS (Dulbecco's Phosphate Buffered Saline, Life Technologies, pH 7.4) to a final concentration of 2-3 mg protein/mL. Protein concentrations were determined using the Pierce BCA Protein Assay kit (Pierce Biotechnology, Rockford, Ill.), with bovine serum albumin as the standard. Preparation of membranes from clonal cell lines. Cells were harvested in ice-cold PBS, pH 7.4, then homogenized with a polytron (Brinkmann Instruments, Westbury, N.Y.). Homogenates were centrifuged at 40,000 g for 20 minutes (4° C.). The pellet was resuspended in PBS and protein concentration determined using the Pierce BCA Protein Assay kit (Pierce Biotechnology, Rockford, Ill.).
(§3) Competition binding to receptors in membrane preparations. Binding to nicotinic receptors was assayed on membranes using standard methods adapted from published procedures (Lippiello and Fernandes, 1986; Davies et al., 1999). In brief, membranes were reconstituted from frozen stocks (approximately 0.2 mg protein) and incubated for 2 h on ice in […] assay buffer (PBS) in the presence of competitor compound (0.001 nM to […]) and radioligand. [^3H]-nicotine (L-(−)-[N-methyl-3H]-nicotine, 69.5 Ci/mmol, Perkin-Elmer Life Sciences) was used for human α4β2 binding studies. [^3H]-epibatidine (52 Ci/mmol, Perkin-Elmer Life Sciences) was used for binding studies at the other receptor subtypes. Incubation was terminated by rapid filtration on a multimanifold tissue harvester (Brandel, Gaithersburg, Md.) using GF/B filters presoaked in 0.33% polyethyleneimine (w/v) to reduce non-specific binding. Filters were washed 3 times and the radioactivity retained was determined by liquid scintillation counting.
(§4) Binding data analysis. Binding data were expressed as percent total control binding. Replicates for each point were averaged and plotted against the log of drug concentration. […]

Human α7 = target: T1, Human α7 (Homo sapiens, UniProt P36544); experiment: Competition binding to human α7 receptors in membrane preparations; conditions: membranes, [3H]-epibatidine competition; Ki by Cheng-Prusoff; read-out: Human α7 Ki
T1 construct: host or cells: HEK cells co-expressing RIC3
Method: as §1, §2, §3, §4

Rat α4β2 = target: T2, Rat α4β2 (Rattus norvegicus, UniProt P09483+P12390); experiment: Competition binding to rat α4β2 receptors in membrane preparations
T2 construct: Preparation of membranes from rat tissues; Rat cortices were obtained from Analytical Biological Services; tissue Analytical Biological Services, Incorporated (ABS, Wilmington, Del.); host or cells: rat cortex membranes (female Sprague-Dawley)
Method: as §2, §3
Binding data analysis. Binding data were expressed as percent total control binding. Replicates for each point were averaged and plotted against the log of drug concentration. The IC50 (concentration of the compound that produces 50% inhibition of binding) was determined by least squares non-linear regression using GraphPad Prism software (GraphPAD, San Diego, Calif.). Ki was calculated using the Cheng-Prusoff equation (Cheng and Prusoff, 1973).

[1] = membranes, [3H]-nicotine competition, Ki by Cheng-Prusoff, read-out: human α4β2 Ki
[2] = membranes, [3H]-epibatidine competition, Ki by Cheng-Prusoff, read-out: Rat α4β2 Ki

SMILES	Ki (human α4β2; [1])	Ki (Rat α4β2; [2])	also measured
CN1CC2CN(c3cccc(Cl)c3Cl)CC(C1)O2	5200 nM	–	–
FC1(F)Oc2ccc(N3CC4CNCC(C3)O4)cc2O1 [3-(2,2-difluorobenzo[d][1,3]dioxol-5-yl)-9-oxa-3,7-diazabicyclo[3.3.1]nonane]	700 nM	–	Ki (Human α7): 90000 nM
Clc1cccc(N2CC3CNCC(C2)O3)c1Cl [3-(2,3-dichlorophenyl)-9-oxa-3,7-diazabicyclo[3.3.1]nonane]	9600 nM	–	–
Fc1cccc(N2CC3CNCC(C2)O3)c1F [3-(2,3-difluorophenyl)-9-oxa-3,7-diazabicyclo[3.3.1]nonane]	260 nM	–	–
CN1CC2CN(c3cnc(Br)nc3)CC(C1)O2 [3-(2-bromopyrimidin-5-yl)-7-methyl-9-oxa-3,7-diazabicyclo[3.3.1]nonane]	2000 nM	–	–
CN1CC2CN(c3cc(F)cc(F)c3)CC(C1)O2 [3-(3,5-difluorophenyl)-7-methyl-9-oxa-3,7-diazabicyclo[3.3.1]nonane]	86 nM	510 nM	–
Fc1cc(F)cc(N2CC3CNCC(C2)O3)c1 [3-(3,5-difluorophenyl)-9-oxa-3,7-diazabicyclo[3.3.1]nonane]	27 nM	–	Ki (Rat α4β2): 97 nM
COc1cccc(N2CC3CN(C)CC(C2)O3)c1 [3-(3-methoxyphenyl)-7-methyl-9-oxa-3,7-diazabicyclo[3.3.1]nonane]	1600 nM	–	–
COc1cccc(N2CC3CNCC(C2)O3)c1 [3-(3-methoxyphenyl)-9-oxa-3,7-diazabicyclo[3.3.1]nonane]	33 nM	110 nM	Ki (Human α7): 800 nM
CN1CC2CN(c3cnccc3Cl)CC(C1)O2 [3-(4-chloropyridin-3-yl)-7-methyl-9-oxa-3,7-diazabicyclo[3.3.1]nonane]	180 nM	–	–
Clc1ccncc1N1CC2CNCC(C1)O2 [3-(4-chloropyridin-3-yl)-9-oxa-3,7-diazabicydo[3.3.1]nonane]	250 nM	–	–
N#Cc1ccncc1N1CC2CNCC(C1)O2 [3-(4-cyanopyridin-3-yl)-9-oxa-3,7-diazabicyclo[3.3.1]nonane]	860 nM	–	–
COc1ccncc1N1CC2CNCC(C1)O2 [3-(4-methoxypyridin-3-yl)-9-oxa-3,7-diazabicyclo[3.3.1]nonane]	120 nM	580 nM	–
CN1CC2CN(c3cncc(Oc4ccccc4Cl)c3)CC(C1)O2 [3-(5-(2-chlorophenoxy)pyridin-3-yl)-7-methyl-9-oxa-3,7-diazabicyclo[3.3.1]nonane]	84 nM	1200 nM	–
Clc1ccccc1Oc1cncc(N2CC3CNCC(C2)O3)c1 [3-(5-(2-chlorophenoxy)pyridin-3-yl)-9-oxa-3,7-diazabicyclo[3.3.1]nonane]	–	14 nM	Ki (human α4β2): 3.6 nM; Ki (Human α7): 430 nM
FCCOc1cc(N2CC3CNCC(C2)O3)cnc1Cl [3-(5-(2-fluoroethoxy)-6-chloropyridin-3-yl)-9-oxa-3,7-diazabicyclo[3.3.1]nonane]	0.21 nM	–	Ki (Rat α4β2): 0.41 nM; Ki (Human α7): 1600 nM
CN1CC2CN(c3cncc(Oc4ccc(Cl)c(Cl)c4)c3)CC(C1)O2 [3-(5-(3,4-dichlorophenoxy)pyridin-3-yl)-7-methyl-9-oxa-3,7-diazabicyclo[3.3.1]nonane]	62 nM	400 nM	–
FCCCOc1cc(N2CC3CNCC(C2)O3)cnc1Cl [3-(5-(3-fluoropropoxy)-6-chloropyridin-3-yl)-9-oxa-3,7-diazabicyclo[3.3.1]nonane]	0.38 nM	–	Ki (Rat α4β2): 0.73 nM; Ki (Human α7): 1900 nM

SMILES	Ki (human α4β2; [1])	Ki (Rat α4β2; [2])	also measured
FCCCCOc1cc(N2CC3CNCC(C2)O3)cnc1Cl [3-(5-(4-fluorobutoxy)-6-chloropyridin-3-yl)-9-oxa-3,7-diazabicyclo[3.3.1]nonane]	0.3 nM	–	Ki (Rat α4β2): 0.35 nM; Ki (Human α7): 1500 nM
Brc1cncc(N2CC3CNCC(C2)O3)c1 [3-(5-bromopyridin-3-yl)-9-oxa-3,7-diazabicydo[3.3.1]nonane]	2.1 nM	–	Ki (Rat α4β2): 2.7 nM
CN1CC2CN(c3cncc(Cl)c3)CC(C1)O2 [3-(5-chloropyridin-3-yl)-7-methyl-9-oxa-3,7-diazabicyclo[3.3.1]nonane]	77 nM	1600 nM	–
CN1CC2CN(c3cncc(C#N)c3)CC(C1)O2 [3-(5-cyanopyridin-3-yl)-7-methyl-9-oxa-3,7-diazabicyclo[3.3.1]nonane]	260 nM	–	–
[O-][n+]1cc(F)cc(N2CC3CNCC(C2)O3)c1 [3-(5-fluoro-pyridine-1-oxide-3-yl)-9-oxa-3,7-diazabicyclo[3.3.1]nonane]	590 nM	–	Ki (Human α7): 54000 nM
COc1cc(N2CC3CNCC(C2)O3)cnc1Cl [3-(5-methoxy-6-chloropyridin-3-yl)-9-oxa-3,7-diazabicyclo[3.3.1]nonane]	0.4 nM	–	Ki (Rat α4β2): 1 nM
CN1CC2CN(c3ccc(Cl)nn3)CC(C1)O2 [3-(6-chloropyridazin-3-yl)-7-methyl-9-oxa-3,7-diazabicyclo[3.3.1]nonane]	29000 nM	–	–
CN1CC2CN(c3ccc(Cl)nc3)CC(C1)O2 [3-(6-chloropyridin-3-yl)-7-methyl-9-oxa-3,7-diazabicyclo[3.3.1]nonane]	120 nM	1800 nM	–
CN(C)c1ccc(N2CC3CNCC(C2)O3)cn1 [3-(6-dimethylaminopyridin-3-yl)-9-oxa-3,7-diazabicyclo[3.3.1]nonane]	1200 nM	–	–
CN1CC2CN(c3ccc(F)nc3)CC(C1)O2 [3-(6-fluoropyridin-3-yl)-7-methyl-9-oxa-3,7-diazabicyclo[3.3.1]nonane]	140 nM	1100 nM	–
COc1ccc(N2CC3CNCC(C2)O3)cn1 [3-(6-methoxypyridin-3-yl)-9-oxa-3,7-diazabicyclo[3.3.1]nonane]	200 nM	–	–
Cc1ccc(N2CC3CN(C)CC(C2)O3)cn1 [3-(6-methylpyridin-3-yl)-7-methyl-9-oxa-3,7-diazabicyclo[3.3.1]nonane]	150 nM	1700 nM	–
c1ccc(-c2ccc(N3CC4CNCC(C3)O4)nn2)cc1 [3-(6-phenylpyridazin-3-yl)-9-oxa-3,7-diazabicyclo[3.3.1]nonane]	380 nM	–	–
CN1CC2CN(c3ccc(C(F)(F)F)nc3)CC(C1)O2 [3-(6-trifluoromethyl-pyridin-3-yl)-7-methyl-9-oxa-3,7-diazabicyclo[3.3.1]nonane]	1000 nM	–	–
c1ccc(N2CC3CNCC(C2)O3)nc1 [3-(pyridin-2-yl)-9-oxa-3,7-diazabicyclo[3.3.1]nonane]	100 nM	350 nM	–
CN1CC2CN(c3cncnc3)CC(C1)O2 [3-(pyrimidin-5-yl)-7-methyl-9-oxa-3,7-diazabicyclo[3.3.1]nonane]	270 nM	–	–
CN1CC2CN(c3cnc(Cl)c(Cl)c3)CC(C1)O2 [3-methyl-7-(5,6-dichloropyridin-3-yl)-9-oxa-3,7-diazabicyclo[3.3.1]nonane]	24 nM	–	Ki (Rat α4β2): 33 nM
